Experimental findings from US9956199B2, “Chromane-like cyclic prenylflavonoids for the medical intervention in neurological disorders” (priority 2011, dated 2018) are described below.

“Also recorded” adds a separate entry of the source.

The assay relates to chicken dorsal root ganglion neurons. Kind of assay: neurite outgrowth in primary chicken dorsal root ganglion neurons. In kind it is cell-based. Particulars: E8 and E15 DRG neurons, 12 to 24 hours; compound 1a 10 μM, NGF 20 ng/ml; GAP-43 staining. As for the experimental part: Dorsal root ganglion neurons comprise of an axon with two branches and are a good model for neuronal differentiation. Embryonic day 8 and 15 chicken dorsal root ganglions were examined for immunochemical staining with GAP43 after incubation with NGF 20 ng/ml and compound 1a (ENDF1) 10 μM to analyze whether compound 1a alone or in combination with the nerve growth factor enhances neurite outgrowth and branching.
Embryonic day (E) 8 and E15 chicken Dorsal Root Ganglions (DRGs) were prepared as described in: Aigner, 1993; Aigner, 1995. Briefly, foetuses were taken out of the egg, decapitated and the DRGs were targeted from the ventral side. The 10 lumbar region DRGs per foetus were dissected, and a total of 100 DRGs were collected in 10 ml DPBS in a 15 ml Falcon tube. DRGs were centrifuged 120×g for 3 min and then enzymatically treated with 1 ml trypsin 0.5 mg/ml+EDTA 0.22 mg/ml (PAA, Pasching, Austria) for 15 min. Then, 9 ml of DMEM 10% FCS were added to inactivate the trypsin and DRGs were centrifuged 120×g for 5 min. DRGs were resuspended and washed with 5 ml of DMEM 10% FCS, pipetted up and down to dissociate them, centrifuged, resuspended in 5 ml of DMEM 10% FCS and transferred into a 60 mm diameter cell culture dish. […]

`COc1cc2c(c(O)c1C(=O)/C=C/c1ccc(O)cc1)C=CC(C)(C)O2` [Compound 1a, (E)-1-(5-hydroxy-7-methoxy-2,2-dimethyl-2H-chromen-6-yl)-3-(4-hydroxyphenyl)prop-2-en-1-one]: the neurite extension entry is given as “strongly promote neurite extension; also recorded: promotes neurite extension to a similar degree as NGF; also recorded: almost in the range of NGF”.
